# According to patent US20060276372A1, “Carotenoids, carotenoid analogs, or carotenoid derivatives for the treatment of proliferative disorders” (priority 2005, published 2006):
# Entries after “also recorded” stand apart in the source; their conditions may differ. Where a name gives a salt, the structure may show the parent alone. Read-outs that look alike come from different tables or passages of the source.
# Tests used:
# [1] = 50 mg/kg, canines; cited from earlier work
# [2] = tested on: CX43; settings: aqueous ethanolic formulation, carcinogen-promoted 10T1/2 cells; cited from earlier work
# [3] = doses up to 75 mg/kg, rat; cited from earlier work
# [4] = mice; cited from earlier work
# [5] = cited from earlier work
# [6] = Oral administration, pharmacokinetics in mice; format: in vivo; settings: oral preparation in lipophilic emulsion, single and multiple dose, murine model
# [7] = tested on: superoxide anion; settings: mM concentrations, aqueous phase; cited from earlier work
# [8] = tested on: superoxide anion; assay: Direct superoxide anion scavenging by EPR spectroscopy (DEPMPO spin trap), PMA-stimulated isolated human PMNs; format: cell-based; settings: aqueous phase; statistical mixture and individual stereoisomers
# Protocol: Leukocyte Isolation and Preparation. Human polymorphonuclear leukocytes (PMNs) were isolated from freshly sampled venous blood of a single volunteer by Percoll density gradient centrifugation as described previously. Briefly, each 10 mL of whole blood was mixed with 0.8 mL of 0.1 M EDTA and 25 mL of saline. The diluted blood was then layered over 9 mL of Percoll at a specific density of 1.080 g/mL. After centrifugation at 400×g for 20 min at 20° C., the plasma, mononuclear cell, and Percoll layers were removed. Erythrocytes were subsequently lysed by addition of 18 mL of ice-cold water for 30 s, followed by 2 mL of 10×PIPES buffer (25 mM PIPES, 110 mM NaCl, and 5 mM KCl, titrated to pH 7.4 with NaOH). Cells were then pelleted at 4° C., the supernatant was decanted, and the procedure was repeated. After the second hypotonic cell lysis, cells were washed twice with PAG buffer [PIPES buffer containing 0.003% human serum albumin (HSA) and 0.1% glucose]. Afterward, PMNs were counted by light microscopy on a hemocytometer. The isolation yielded PMNs with a purity of >95%. The final pellet was then suspended in PAG-CM buffer (PAG buffer with 1 mM CaCl2 and 1 mM MgCl2).
# EPR Measurements. All EPR measurements were performed using a Bruker ER 300 EPR spectrometer operating at X-band with a TM110 cavity as previously described. The microwave frequency was measured with a Model 575 microwave counter (EIP Microwave, Inc., San Jose, Calif.). To measure superoxide anion (O2) generation from phorbol-ester (PMA)-stimulated PMNs, EPR spin-trapping studies were performed using the spin trap DEPMPO (Oxis, Portland, Oreg.) at 10 mM. 1×10^6 PMNs were stimulated with PMA (1 ng/mL) and loaded into capillary tubes for EPR measurements. To determine the radical scavenging ability of 3 and 9 in aqueous and ethanolic formulations, PMNs were pre-incubated for 5 minutes with test compound, followed by PMA stimulation.
# Instrument settings used in the spin-trapping experiments were as follows: modulation amplitude, 0.32 G; time constant, 0.16 s; scan time, 60 s; modulation frequency, 100 kHz; microwave power, 20 milliwatts; and microwave frequency, 9.76 GHz. The samples were placed in a quartz EPR flat cell, and spectra were recorded. The component signals in the spectra were identified and quantified as reported previously.
# [9] = Cardiac ischemia-reperfusion injury, experimental infarction model; format: in vivo, rat; settings: intravenous pretreatment, rodents, highest dose tested
# [10] = target: human serum albumin (HSA) (Homo sapiens, UniProt P02768); assay: Plasma-protein binding studies in vitro
# human serum albumin (HSA), sequence (P02768 25-609): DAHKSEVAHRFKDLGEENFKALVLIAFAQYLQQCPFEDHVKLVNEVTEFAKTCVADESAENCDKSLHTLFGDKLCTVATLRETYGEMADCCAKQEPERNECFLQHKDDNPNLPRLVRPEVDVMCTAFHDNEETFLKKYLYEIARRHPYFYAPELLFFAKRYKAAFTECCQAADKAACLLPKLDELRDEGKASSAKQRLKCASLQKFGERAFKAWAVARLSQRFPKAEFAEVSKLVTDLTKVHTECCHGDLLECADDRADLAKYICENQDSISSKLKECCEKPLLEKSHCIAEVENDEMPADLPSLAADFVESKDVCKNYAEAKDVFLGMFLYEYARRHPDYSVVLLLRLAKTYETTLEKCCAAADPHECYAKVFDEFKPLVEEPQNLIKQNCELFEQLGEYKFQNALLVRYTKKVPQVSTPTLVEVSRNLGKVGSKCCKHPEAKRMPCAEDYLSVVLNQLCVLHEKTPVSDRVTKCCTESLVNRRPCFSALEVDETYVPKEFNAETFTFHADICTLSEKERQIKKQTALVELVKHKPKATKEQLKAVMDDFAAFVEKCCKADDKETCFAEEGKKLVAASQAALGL
smiles,measurement,setting,value
"CC1=C(/C=C/C(C)=C/C=C/C(C)=C/C=C/C=C(C)/C=C/C=C(C)/C=C/C2=C(C)C(=O)C(OC(=O)CCC(=O)O)CC2(C)C)C(C)(C)CC(OC(=O)CCC(=O)O)C1=O (racemic) [dAST, disodium salt disuccinate ester of astaxanthin]",protection against cardiac ischemia-reperfusion (I/R) injury,[1],significantly protect against cardiac ischemia-reperfusion (I/R) injury
same,expression of CX43 and GJIC,[2],increased expression of the connexin protein CX43 and GJIC
same,protection against cardiac ischemia-reperfusion (I/R) injury,[3],significantly protect against cardiac ischemia-reperfusion (I/R) injury
same,absorption and tissue distribution after oral administration,[4],"rapid absorption of the compound, its cleavage to free astaxanthin, and accumulation in certain target tissues"
same,concentration of pseudo-solution in water,[5],up to 8 mg/ml; also recorded: approximately 10 mM
same,plasma and tissue levels of nonesterified astaxanthin,[6],significant plasma and tissue levels of nonesterified astaxanthin were achieved
same,inhibition of the induced superoxide anion,[7],complete inhibition
"CC1=C(/C=C/C(C)=C/C=C/C(C)=C/C=C/C=C(C)/C=C/C=C(C)/C=C/C2=C(C)C(=O)C(OC(=O)CCC(=O)O)CC2(C)C)C(C)(C)CC(OC(=O)CCC(=O)O)C1=O (stereo not shown) [dAST, disodium salt disuccinate ester of astaxanthin]",direct scavenging of superoxide anion,[8],potent direct scavengers of superoxide anion in the aqueous phase
same,myocardial salvage,[9],up to 56%
"CC(C=CC=C(C)C=CC1=C(C)C(=O)C(OC(=O)CCC(=O)[O-])CC1(C)C)=CC=CC=C(C)C=CC=C(C)C=CC1=C(C)C(=O)C(OC(=O)CCC(=O)[O-])CC1(C)C.[Na+].[Na+] [meso-(3R,3′S)-disodium disuccinate astaxanthin]",binding to human serum albumin,[10],bound immediately and preferentially to human serum albumin (HSA) at a binding site
